In PMC4418665, “Cyclization of the Urokinase Receptor-Derived Ser-Arg-Ser-Arg-Tyr Peptide Generates a Potent Inhibitor of Trans-Endothelial Migration of Monocytes” (PLoS ONE, 2015):
Peptide text beside a SMILES is read from it.

How the values were obtained:
THP-1 cells = format: cell-based, human; conditions: 10 nM peptide, 90 minutes, Boyden chamber
Procedure: The ability of [SRSRY] peptide to affect THP-1 cell migration was analyzed in Boyden chambers using 10 nM fMLF or 10 nM SRSRY as chemoattractants. […] Inhibitory effect of [SRSRY] is dose-dependent, it starts in the high fM range, it seems to level off in the μM range and reaches an overall 50% reduction at 10 pM (Fig 4B). […] The mechanisms by which monocytes move when subjected to a chemoattractant gradient, involve changes in cytoskeletal organization, which provide both protrusive and contractile forces necessary for cell migration. To gain some insights into the cellular effects exerted by peptide [SRSRY], PMA-differentiated THP-1 cells were grown adherent onto a glass slide, exposed to diluents (CTL), 10 nM fMLF gradient plus/minus 10 nM [SRSRY] or 10 nM [RSSYR] in a DUNN chamber for 6 hours as described, and then stained with rhodamine-phalloidin. A total of 100 cells/sample that translocated to the area corresponding to the ring separating the inner and outer chambers were counted and their cytoskeletal organization examined with a fluorescence-inverted microscope. […] Conversely, the addition of peptide [SRSRY] to the fMLF gradient reduced cell elongation and alignment with the appearance of F-actin linear distribution along the plasma membranes in the 60% of cell population (Fig 4C). In order to verify whether the inhibitory effect of [SRSRY] also occurs on primary monocytes and/or macrophages, human monocytes and macrophages were subjected to cell migration assays in Boyden and DUNN chambers, respectively. […] Unlike [RSSYR], 10 nM [SRSRY] reduced both fMLF- and SRSRY- directed monocyte migration by 50% and 49%, respectively. Next, primary macrophages were subjected to cell migration assay in DUNN chamber as above described. After 6 hours incubation, a total of 100 cells/sample that translocated to the area corresponding to the ring separating the inner and outer chambers were counted. Macrophage exposure to 10 nM fMLF elicited a considerable cell migration, reaching 230% of the basal cell migration (CTL), that was unchanged by 10 nM [[…]). […] These findings indicate that unlike linear SRSRY, the cyclic form of the chemotactic sequence of uPAR inhibits monocyte motility and prevents cytoskeletal re-organization occurring during migration of macrophages. {[…]] inhibits migration of monocytes and macrophages in a dose-dependent manner causing a marked inhibition of fMLF-dependent cytoskeletal re-organization. A. THP-1 cells (1x10^5 cells/well) were allowed to migrate for 90 minutes at 37°C, 5% CO2 in Boyden chambers toward 10 nM fMLF, or 10 nM SRSRY in the presence of diluents (None), 10 nM [RSSYR] or 10 nM [SRSRY]. […] Data are expressed as the means ± SD of three independent experiments, performed in duplicate. *Statistical significance against None with p<0.001. B. THP-1 and PMA-stimulated THP-1 cell migration toward 10 nM fMLF plus increasing concentrations of [SRSRY] in Boyden chambers. The extent of cell migration was expressed as a percentage of the net fMLF-dependent cell migration, considered as 100%. Data are expressed as the means ± SD of three independent experiments, performed in duplicate. C. Representative images of PMA-stimulated THP-1 cells allowed to migrate in a DUNN chamber toward diluents (CTL), or a fMLF chemotactic gradient, in the absence (None) or presence of 10 nM [SRSRY] or [RSSYR] peptides and stained with rhodamine-phalloidin. Scale bar: 10 μm. Original magnifications: 630x. D-E. Primary monocytes (1x10^5 cells/well) were allowed to migrate for 90 minutes at 37°C, 5% CO2 in Boyden chambers toward 10 nM fMLF (D), or 10 nM […]) in the presence of diluents (None), 10 nM [RSSYR] or 10 nM [SRSRY]. […] Data are expressed as the means ± SD of three independent experiments, performed in duplicate. *Statistical significance against None with p<0.001; **Statistical significance against None with p<0.0001. […]

FPR1 = molecular target: T1, FPR1 (Homo sapiens, UniProt P21462); test: Agonist-induced FPR1 internalization at 37°C, fluorescence microscopy, THP-1 cells; format: cell-based; set-up: host or cells: THP-1 human monocytic leukemia cells; conditions: excess (100 nM) unlabelled peptide 30 min at 37°C, then 10 nM FITC-fMLF 30 min at 37°C
T1 sequence (P21462 1-350): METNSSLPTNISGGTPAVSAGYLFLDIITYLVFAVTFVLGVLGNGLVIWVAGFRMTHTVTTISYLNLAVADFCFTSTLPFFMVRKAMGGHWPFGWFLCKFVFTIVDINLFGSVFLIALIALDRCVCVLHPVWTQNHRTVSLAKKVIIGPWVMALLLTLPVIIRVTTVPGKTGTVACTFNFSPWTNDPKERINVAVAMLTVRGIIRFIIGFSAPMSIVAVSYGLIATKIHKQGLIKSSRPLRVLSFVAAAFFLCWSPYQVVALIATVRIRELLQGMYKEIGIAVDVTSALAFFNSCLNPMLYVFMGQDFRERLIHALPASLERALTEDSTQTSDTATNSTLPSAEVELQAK
Procedure: Once documented that both SRSRY and [SRSRY] peptides compete with fMLF for binding to FPR1, we investigated the effect of [SRSRY] on the motility of monocytes. Preliminarily, we assessed whether [SRSRY] is a ligand of FPR1 on monocyte cell surface. […] (Fig 3A). When binding experiments were performed at 37°C, FPR1 appeared mainly localized within the cytoplasm, adjacent but outside the nucleus of THP-1 cells.
Fig 3 The peptide [SRSRY] binds to FPR1 on THP-1 cell surface. A. THP-1 cells (1.5 x10^6 cells/sample) were pre-incubated with diluents (None), 100 nM fMLF, 100 nM SRSRY or 100 nM [SRSRY] peptides for 60 minutes at 4°C, then exposed to 10 nM N-formyl-Nle-Leu-Phe-Nle-Tyr-Lys-fluorescein (FITC-fMLF) for additional 60 minutes at 4°C. Fluorimetric measurement of cell-associated fluorescence was assed using 485 nm excitation and 535 nm emission filters. Data are expressed as a percentage of the fluorescence associated to THP-1 cells exposed to FITC-fMLF alone (None = 100%) and represent a mean ± SD from triplicates. *Statistical significance (t-test) against None with p<0.001. B. THP-1 cells incubated with diluents (None), 100 nM fMLF, 100 nM SRSRY or 100 nM [SRSRY] peptides for 30 minutes at 37°C and exposed to 10 nM FITC-fMLF for additional 30 minutes at 37°C. Scale bar: 5 μm. Original magnifications: 630x. […]

primary macrophages = test: Primary macrophage migration in DUNN chamber; format: cell-based, human; conditions: 10 nM peptide added to 10 nM fMLF gradient, 6 hours
Procedure: The ability of [SRSRY] peptide to affect THP-1 cell migration was analyzed in Boyden chambers using 10 nM fMLF or 10 nM SRSRY as chemoattractants. […] Inhibitory effect of [SRSRY] is dose-dependent, it starts in the high fM range, it seems to level off in the μM range and reaches an overall 50% reduction at 10 pM (Fig 4B). […] The mechanisms by which monocytes move when subjected to a chemoattractant gradient, involve changes in cytoskeletal organization, which provide both protrusive and contractile forces necessary for cell migration. […] A total of 100 cells/sample that translocated to the area corresponding to the ring separating the inner and outer chambers were counted and their cytoskeletal organization examined with a fluorescence-inverted microscope. […] After 6 hours incubation, a total of 100 cells/sample that translocated to the area corresponding to the ring separating the inner and outer chambers were counted. […] Data are expressed as the means ± SD of three independent experiments, performed in duplicate. *Statistical significance against None with p<0.001. […] The extent of cell migration was expressed as a percentage of the net fMLF-dependent cell migration, considered as 100%. Data are expressed as the means ± SD of three independent experiments, performed in duplicate. […]

In the case of N=C(N)NCCC[C@@H]1NC(=O)[C@H](CCCNC(=N)N)NC(=O)[C@H](Cc2ccc(O)cc2)NC(=O)[C@H](CO)NC(=O)[C@H](CO)NC1=O [[RSSYR], [Arg-Ser-Ser-Tyr-Arg]] (cyclo(RRSSY)), the “reduction of THP-1 monocyte migration toward 10 nM SRSRY” value (THP-1 cells) is reported as “did not exert any effect”, the “reduction of THP-1 monocyte migration toward 10 nM fMLF” value (THP-1 cells) is reported as “did not exert any effect” and the “internalization of fluorescent agonist in THP-1 cells” value (FPR1) is reported as “did not exert such effect”. For the same compound, the “effect on fMLF-directed migration of primary macrophages” value (primary macrophages) was “unchanged”.
